Data: patent EP1156787B1, “OXADIAZOLE COMPOUNDS AND COMPOSITIONS FOR DELIVERING ACTIVE AGENTS” (priority 1999, dated 2000)

How the values were obtained:
[1] = set-up: species or system Male Sprague-Dawley rats; settings: rat, in vivo, po, 150 mg/kg
Experimental: Oral dosing (PO) compositions of delivery agent compound and salmon calcitonin (sCT) in water were prepared. Typically, 450 mg of compound was added to 2.0 ml of water. Either the sodium salt of the compound was used or the free acid was converted to the sodium salt by stirring the resultant solution and adding one equivalent of sodium hydroxide (1.0 N) and diluting with water. The solution was vortexed, then heated (about 37°C) and sonicated. The pH was adjusted to about 7 (6.5 to 8.5) with sodium hydroxide or hydrochloric acid. 90 µg sCT from a stock solution was added to the solution. Water was then added to bring the total volume to about 3.0 ml (varies depending on solubility of the delivery agent compound) and vortexed. The final delivery agent compound dose, sCT dose and volume dose amounts are listed below in Table 1.
The typical dosing and sampling protocols were as follows. Male Sprague-Dawley rats weighing between 200-250g were fasted for 24 hours and administered ketamine (44 mg/kg) and chlorpromazine (1.5 mg/kg) 15 minutes prior to dosing. A dosing group of five rats was administered one of the dosing solutions. For oral dosing, an 11 cm Rusch 8 French catheter was adapted to a 1 ml syringe with a pipette tip. The syringe was filled with dosing solution by drawing the solution through the catheter, which was then wiped dry. The catheter was placed down the esophagus leaving 1 cm of tubing past the incisors. Solution was administered by pressing the syringe plunger.
Blood samples were collected serially from the tail artery, typically at 0, 10, 20, 30, 60 and 90 minutes after administration. Serum sCT was determined by testing with an EIA kit (Kit # EIAS-6003 from Peninsula Laboratories, Inc., San Carlos, CA). Numbers were adjusted according to baseline values obtained at 0 minutes. The limit of the assay is 80 pg/ml. The results from the five rats in each dosing group were averaged for each time point. The maximum is reported below in Table 1.

[2] = set-up: species or system Male Sprague-Dawley rats; settings: rat, in vivo, po, 100 mg/kg
Experimental: Oral gavage (PO) and/or intracolonic (IC) dosing solutions of delivery agent compound and human parathyroid hormone residues 1-34 (PTH) in water were prepared. A solution of the compound was made either with the sodium salt of the compound or by converting the free acid to its sodium salt. Typically, a solution of the compound was prepared in water and stirred, adding one equivalent of sodium hydroxide (1.0 N) when making the sodium salt. The final dosing solutions were prepared by mixing the compound solution with a PTH stock solution (typically having a concentration of 5 mg PTH/ml) and diluting to the desired volume (usually 3.0 ml). The final compound, PTH and volume dose amounts are listed below in Table 4.
The typical dosing and sampling protocols were as follows. Male Sprague-Dawley rats weighing between 200-250g were fasted for 24 hours and administered ketamine (44 mg/kg) and chlorpromazine (1.5 mg/kg) 15 minutes prior to dosing. A dosing group of five rats was administered one of the dosing solutions. For oral gavage (PO), an 11cm Rusch 8 French catheter was adapted to a 1 ml syringe with a pipette tip. The syringe was filled with dosing solution by drawing the solution through the catheter, which was then wiped dry. The catheter was placed down the esophagus leaving 1 cm of tubing past the rat's incisors. Solution was administered by pressing the syringe plunger. For intracolonic (IC) dosing, a 7.5 cm Rusch catheter tube (French 8 or 6) was adapted to a syringe with an Eppendorf pipette tip. The syringe was filled with the dosing solution by drawing the solution through the catheter tube. The catheter tube was wiped dry. K-Y jelly was applied to the tip, avoiding contact with the eye of the tube, and the tube was inserted into the colon through the anus until the tube was no longer visible. The solution was injected by pressing the syringe plunger, and the tube was removed.
Blood samples were collected serially from the tail artery, typically 0, 15, 30, 45, 60 and 90 minutes after oral administration and 0, 10, 20, 30, 60 and 90 minutes after IC administration. Serum PTH concentrations were quantified by a PTH radioimmunoassay kit (Kit # RIK 6101 from Peninsula Laboratories, Inc., San Carlos, CA). Previous studies indicated baseline values of about zero. Results from the five rats in each group were averaged for each time point. The maximum is reported below in Table 4.

[3] = Intracolonic delivery of heparin with delivery agent compound; heparin activity by activated partial thromboplastin time (APTT); type: in vivo, Male Sprague-Dawley rats; settings: rats, intracolonic (IC); compound 50 mg/kg, heparin 25 mg/kg, volume 1 ml/kg; maximum of time-point means of five rats; baseline about 20 sec
Experimental: Oral gavage (PO) and/or intracolonic (IC) dosing solutions containing a delivery agent compound and heparin sodium USP in 25% aqueous propylene glycol were prepared. Either the sodium salt of the compound was used or the free acid was converted to the sodium salt with one equivalent of sodium hydroxide. Typically, delivery agent compound and heparin (about 166-182 IU/mg) were mixed by vortex as dry powders. This dry mixture was dissolved in 25% v/v aqueous propylene glycol, vortexed and placed in a sonicator (about 37 °C). The pH was adjusted to about 7 (6.5 to 8.5) with aqueous sodium hydroxide (2N). The dosing solution was sonicated to produce a clear solution. The final volume was adjusted to about 3.0 ml. The final delivery agent compound dose, heparin dose and volume dose amounts are listed below in Table 2.
The typical dosing and sampling protocols were as follows. […]
Citrated blood samples were collected by cardiac puncture following the administration of ketamine (88 mg/kg), typically at 0.25, 0.5, 1.0 and 1.5 hours after administration. Heparin activity was determined by utilizing the activated partial thromboplastin time (APTT) according to the method of Henry, J.B., Clinical Diagnosis and Management by Laboratory Methods, Philadelphia, PA, W.B. Saunders (1979). […]

Mean Peak Serum Set (pg/ml ± SD)(SE) [1]	AUC [2]	Mean Peak Serum [PTH] (pg/ml) ± SD [2] [pg/mL]	SMILES	Mean Peak APTT (sec) ± SD [3] [s]
306 ± 339 (152) pg/ml	716.96	14.44	O=C(O)CCCCCCc1nnc(-c2cc(Cl)cc(Cl)c2O)o1 [Compound 6]	–
–	2717.51	57.88	O=C(O)CCCCc1nnc(-c2ccccc2O)o1 [Compound 3]	–
–	4790.10	138.9 ± 118.46	Cc1ccc(-c2nnc(CCCCCCC(=O)O)o2)c(O)c1 [Compound 7]	–
–	–	498.55 ± 237.83	O=C(O)CCCCCCc1nnc(-c2ccccc2O)o1 [Compound 2]	52.8 ± 31.9
37 ± 55 pg/mL	–	–	O=C(O)CCCCCCc1nnc(-c2ccccc2)o1 [Compound 10]	–
–	6852.12	330.74 ± 410.57	O=C(O)CCCCCCCc1nnc(-c2ccccc2O)o1 [Compound 4]	–
393 ± 431 (193) pg/ml	509.20	22.91	O=C(O)CCCCCCc1nnc(-c2cc(Cl)ccc2O)o1 [Compound 5]	–
